Assay results: PubChem BioAssay (NCI)
Where “and” joins values, the source holds several entries; their conditions need not be identical. Equal values may be shown once.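 Five compound concentrations were applied to cells in 96-well plates for 48 hours; endpoints were derived by simple linear interpolation of the resulting dose-response curve. At the GI50, growth is halved. TGI marks complete inhibition of growth.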

Experiments:
Assay in all cases: NCI-60 cell line screen, 48 h
[1] = test system: UACC-257 melanoma
[2] = test system: MDA-MB-231 breast
[3] = test system: SNB-19 CNS
[4] = test system: CCRF-CEM leukemia
[5] = test system: SK-MEL-5 melanoma
[6] = test system: HCT-116 colon
[7] = test system: SNB-75 CNS
[8] = test system: ACHN renal
[9] = test system: MDA-MB-435
[10] = test system: HCC-2998 colon

With COc1ccc(/C=C2\CCC(CN(C)C)C2=O)cc1OC (stereo not drawn) the TGI [1] was 17 µM, the TGI [2] was 7.71 µM and the TGI [3] was 30.6 µM. It also gave a TGI [4] of 6.74 µM, a TGI [5] of 23.9 µM and a TGI [6] of 7.01 µM. It also gave a TGI [7] of 30.5 µM, a TGI [8] of 15.9 µM and a TGI [9] of 16.1 µM. For the same compound, the TGI [10] was 14.5 µM.
CS(=O)(=O)Nc1ccc(N=Cc2c(O)[nH]c3ccccc23)cc1 was tested, and the GI50 [1] was greater than 25 µM, the TGI [1] was greater than 25 µM and the GI50 [2] was greater than 25 µM. For the same compound, the TGI [2] was greater than 25 µM, the GI50 [3] was greater than 25 µM and the TGI [3] was greater than 25 µM. The GI50 [4] was greater than 20 µM, the TGI [4] was greater than 25 µM and the GI50 [5] was greater than 25 µM. The TGI [5] was greater than 25 µM, the GI50 [6] was greater than 25 µM and the TGI [6] was greater than 25 µM. It also gave a GI50 [7] greater than 25 µM, a TGI [7] greater than 25 µM and a GI50 [8] greater than 25 µM. It also gave a TGI [8] greater than 25 µM, a GI50 [9] greater than 25 µM and a TGI [9] greater than 25 µM. It also gave a GI50 [10] greater than 25 µM and a TGI [10] greater than 25 µM.
In the case of CSc1ccccc1C#Cc1ccccc1C#CCCCCO, the GI50 [1] is reported as 18.5 µM, the TGI [1] is reported as 34.2 µM and the GI50 [2] is reported as 2.57 µM. The TGI [2] was 13.2 µM, the GI50 [3] was 17.8 µM and the TGI [3] was 33.5 µM. The GI50 [4] was 10.3 µM, the TGI [4] was 46.5 µM and the GI50 [5] was 14 µM. It also gave a TGI [5] of 27.6 µM, a GI50 [6] of 14 µM and a TGI [6] of 31.4 µM. It also gave a GI50 [7] of 13.8 µM, a TGI [7] of 28 µM and a GI50 [8] of 11.3 µM. It also gave a TGI [8] of 23.4 µM, a GI50 [9] of 3.9 µM and a TGI [9] of 15.2 µM. It also gave a GI50 [10] of 10 µM and a TGI [10] of 22.9 µM.
COc1cc2c3c(n(C)c(=O)c2cc1OC)-c1cc2c(cc1/C3=C\C(N)CN)OCO2 (stereo not drawn) gave a GI50 [1] of 6.38 µM, a TGI [1] of 41.4 µM and a GI50 [2] of 4.15 µM. The TGI [2] was greater than 53.3 µM, the GI50 [3] was 1.36 µM and the TGI [3] was greater than 49.3 µM. It also gave a GI50 [4] of 0.333 µM, a TGI [4] of 3.63 µM and a GI50 [5] of 2.8 µM. It also gave a TGI [5] of 8.53 µM, a GI50 [6] of 1.16 µM and a TGI [6] of 2.44 µM. It also gave a GI50 [7] of 3.6 µM, a TGI [7] greater than 31.3 µM and a GI50 [8] of 0.73 µM. The TGI [8] was 2.82 µM, the GI50 [9] was 2.56 µM and the TGI [9] was 17.3 µM. It also gave a GI50 [10] of 3.22 µM and a TGI [10] of 50 µM.
Compound O=C(COc1cccc(/C=C2\COc3ccc(Cl)cc3C2=O)c1)c1ccc(Cl)cc1 has a GI50 [1] of 18.5 µM, a TGI [1] of 33.4 µM and a GI50 [2] of 4.08 µM. It also gave a TGI [2] of 21.1 µM, a GI50 [3] of 14.5 µM and a TGI [3] of 27.7 µM. The GI50 [4] was 4.72 µM, the TGI [4] was 49 µM and the GI50 [5] was 12.8 µM. It also gave a TGI [5] of 25.3 µM, a GI50 [6] of 3.28 µM and a TGI [6] of 11.3 µM. For the same compound, the GI50 [7] was 4.73 µM, the TGI [7] was 22.2 µM and the GI50 [8] was 15.4 µM. For the same compound, the TGI [8] was 29.4 µM, the GI50 [9] was 5.91 µM and the TGI [9] was 18.6 µM. For the same compound, the GI50 [10] was 3.71 µM and the TGI [10] was 15.1 µM.
With CCCCN(CCCC)c1ccc(C(=NC(C)CCCN(CC)CC)c2ccc(N(C)C)cc2)cc1 (stereo not drawn) the GI50 [1] was 0.915 µM, the TGI [1] was 1.83 µM and the GI50 [2] was 0.863 µM. It also gave a TGI [2] of 1.82 µM, a GI50 [3] of 1.14 µM and a TGI [3] of 2.82 µM. For the same compound, the GI50 [4] was 1.22 µM, the TGI [4] was 3.87 µM and the GI50 [5] was 0.806 µM. It also gave a TGI [5] of 1.5 µM, a GI50 [6] of 0.537 µM and a TGI [6] of 1.27 µM. The GI50 [7] was 0.734 µM, the TGI [7] was 1.56 µM and the GI50 [8] was 0.935 µM. The TGI [8] was 1.89 µM, the GI50 [9] was 0.783 µM and the TGI [9] was 1.57 µM. It also gave a GI50 [10] of 0.922 µM and a TGI [10] of 1.77 µM.
In the case of Nc1n[nH]c2cccc(C#Cc3cccc(C(=O)Nc4cc(CN5CCOCC5)cc(C(F)(F)F)c4)c3)c12, the GI50 [1] is reported as 4.63 µM, the TGI [1] is reported as 18.1 µM and the GI50 [2] is reported as 1.65 µM. For the same compound, the TGI [2] was 6.8 µM, the GI50 [3] was 5.23 µM and the TGI [3] was 20.3 µM. The GI50 [4] was 3.68 µM, the TGI [4] was 20.3 µM and the GI50 [5] was 4.34 µM. For the same compound, the TGI [5] was 16 µM, the GI50 [6] was 2 µM and the TGI [6] was 11.1 µM. The GI50 [7] was 5.51 µM, the TGI [7] was 19.3 µM and the GI50 [8] was 3.06 µM. The TGI [8] was 11.8 µM, the GI50 [9] was 3.46 µM and the TGI [9] was 15.2 µM. It also gave a GI50 [10] of 3.3 µM and a TGI [10] of 12.2 µM.
For Nc1nc(N)c(N=O)c(OCC2CCCCC2)n1, the GI50 [1] was 17.2 µM, the TGI [1] was > 100 µM and 38.9 µM and the GI50 [2] was 8.07 µM. For the same compound, the TGI [2] was 77.9 µM and > 31.4 µM, the TGI [3] was greater than 100 µM and the GI50 [4] was 8.83 µM. The TGI [4] was greater than 100 µM, the GI50 [5] was 13.7 µM and the TGI [5] was 60 µM and 42 µM. For the same compound, the TGI [6] was greater than 100 µM, the TGI [7] was 42.3 µM and 50.2 µM and the GI50 [8] was 5.47 µM. The TGI [8] was > 100 µM and 34.3 µM, the GI50 [9] was 12.8 µM and the TGI [9] was greater than 85.3 µM. It also gave a GI50 [10] of 22.5 µM and a TGI [10] greater than 100 µM.
CSC1(SC2=NCCN2)SC2(NCCN2)S1 showed a TGI [1] of 46.6 µM, a TGI [2] of 38.6 µM and a TGI [3] of 41.9 µM. The TGI [4] was 26.1 µM, the TGI [5] was 35 µM and the TGI [6] was 31.7 µM. For the same compound, the TGI [7] was 32.2 µM, the TGI [8] was 33.2 µM and the TGI [9] was 31.3 µM. For the same compound, the TGI [10] was 29.8 µM.
Work on CCCc1cc(=O)n2c(C(=O)Nc3ccccc3OC)c(C(=O)Nc3ccc(F)cc3)sc2n1 yielded a GI50 [1] of 20.2 µM, a TGI [1] of 60.2 µM and a GI50 [2] of 3.29 µM. For the same compound, the TGI [2] was 11.2 µM, the GI50 [3] was 23.1 µM and the TGI [3] was 68.5 µM. The GI50 [4] was 24.7 µM, the TGI [4] was 59 µM and the GI50 [5] was 48.6 µM. It also gave a TGI [5] greater than 160 µM, a GI50 [6] of 4.61 µM and a TGI [6] of 22.2 µM. It also gave a GI50 [7] of 8.72 µM, a TGI [7] of 35 µM and a GI50 [8] of 5.11 µM. For the same compound, the TGI [8] was 18.7 µM, the GI50 [9] was 36.5 µM and the TGI [9] was greater than 160 µM. It also gave a GI50 [10] of 131 µM and a TGI [10] greater than 160 µM.
Compound CC(C)(C#N)c1cc(C(=O)Nc2cc(Nc3ncccc3-c3ncnc4nc[nH]c34)ccc2F)cc(C(F)(F)F)c1 has a GI50 [1] of 0.112 µM, a TGI [1] greater than 3.21 µM and a GI50 [2] of 0.27 µM. For the same compound, the GI50 [3] was greater than 2.15 µM, the TGI [3] was greater than 10 µM and the TGI [4] was greater than 10 µM. For the same compound, the GI50 [5] was 0.589 µM, the TGI [5] was greater than 1.98 µM and the GI50 [6] was 0.242 µM. It also gave a TGI [6] greater than 2.35 µM, a TGI [7] greater than 10 µM and a GI50 [8] of 1.2 µM. It also gave a TGI [8] greater than 3.41 µM, a GI50 [9] of 0.217 µM and a TGI [9] greater than 3.22 µM. For the same compound, the GI50 [10] was 0.372 µM.
Nc1n[nH]c2ccc([C@@H]3Nc4ccc5[nH]ncc5c4[C@H]4C5C=CC(C5)[C@@H]34)cc12 (stereo partly drawn) was tested, and the GI50 [1] was 12.5 µM, the TGI [1] was 58.5 µM and the GI50 [2] was 0.694 µM. It also gave a TGI [2] of 12.4 µM, a GI50 [3] of 0.59 µM and a TGI [3] of 61.3 µM. The GI50 [4] was 0.342 µM, the TGI [4] was greater than 55.6 µM and the GI50 [5] was 0.338 µM. It also gave a TGI [5] of 1.58 µM, a GI50 [6] of 0.351 µM and a TGI [6] of 3.33 µM. It also gave a GI50 [7] of 0.176 µM, a TGI [7] of 24.8 µM and a GI50 [8] of 0.562 µM. For the same compound, the TGI [8] was 47.8 µM, the GI50 [9] was 0.0794 µM and the TGI [9] was 0.444 µM. For the same compound, the GI50 [10] was 0.378 µM and the TGI [10] was 12.1 µM.
For CC(C)c1ccc(Nc2nccc(-c3cnn4ncccc34)n2)cc1, the GI50 [1] was 0.563 µM, the TGI [1] was 1.6 µM and the GI50 [2] was 0.726 µM. It also gave a TGI [2] greater than 17.9 µM, a GI50 [3] of 0.842 µM and a TGI [3] greater than 25 µM. For the same compound, the GI50 [4] was 0.703 µM, the TGI [4] was greater than 20.5 µM and the GI50 [5] was 0.218 µM. It also gave a TGI [5] of 0.749 µM, a GI50 [6] of 0.324 µM and a TGI [6] of 4.29 µM. It also gave a GI50 [7] of 0.484 µM, a TGI [7] of 1.17 µM and a GI50 [8] of 0.189 µM. For the same compound, the TGI [8] was greater than 10.3 µM, the GI50 [9] was 0.567 µM and the TGI [9] was 1.66 µM. The GI50 [10] was 0.635 µM and the TGI [10] was greater than 10.2 µM.
With O=C(CCCSc1nc(-c2ccccc2)cc(-c2ccc(Cl)cc2)n1)NO the GI50 [1] was 2.92 µM, the TGI [1] was 12.4 µM and the GI50 [2] was 2.12 µM. For the same compound, the TGI [2] was 11.6 µM, the GI50 [3] was 3.12 µM and the TGI [3] was 14.9 µM. For the same compound, the GI50 [4] was 0.882 µM, the TGI [4] was 13 µM and the GI50 [5] was 2.26 µM. The TGI [5] was 5.45 µM, the GI50 [6] was 1.04 µM and the TGI [6] was 13.1 µM. For the same compound, the GI50 [7] was 2.08 µM, the TGI [7] was 10.4 µM and the GI50 [8] was 0.399 µM. It also gave a TGI [8] of 4.38 µM, a GI50 [9] of 3.11 µM and a TGI [9] of 14.8 µM. The GI50 [10] was 3.03 µM and the TGI [10] was 13.2 µM.
